Measured values reported in the kinase profiling compilation of Christmann-Franck et al. (2016).

What was measured:
Experiment in all cases: radiometric filter-binding kinase assay
AURKB (human) = AURKB (human) (UniProt Q96GD4)
PIM1 (human) = PIM1 (human) (UniProt P11309)
PAK7 (human) = PAK7 (human) (UniProt Q9P286)
MAPK12 (human) = MAPK12 (human) (UniProt P53778)
PAK4 (human) = PAK4 (human) (UniProt O96013); conditions: compound 10.0 µM
MINK1 (human) = MINK1 (human) (UniProt Q8N4C8)
CSK (human) = CSK (human) (UniProt P41240)
Sequence of CSK (human) (P41240 whole entry, looked up): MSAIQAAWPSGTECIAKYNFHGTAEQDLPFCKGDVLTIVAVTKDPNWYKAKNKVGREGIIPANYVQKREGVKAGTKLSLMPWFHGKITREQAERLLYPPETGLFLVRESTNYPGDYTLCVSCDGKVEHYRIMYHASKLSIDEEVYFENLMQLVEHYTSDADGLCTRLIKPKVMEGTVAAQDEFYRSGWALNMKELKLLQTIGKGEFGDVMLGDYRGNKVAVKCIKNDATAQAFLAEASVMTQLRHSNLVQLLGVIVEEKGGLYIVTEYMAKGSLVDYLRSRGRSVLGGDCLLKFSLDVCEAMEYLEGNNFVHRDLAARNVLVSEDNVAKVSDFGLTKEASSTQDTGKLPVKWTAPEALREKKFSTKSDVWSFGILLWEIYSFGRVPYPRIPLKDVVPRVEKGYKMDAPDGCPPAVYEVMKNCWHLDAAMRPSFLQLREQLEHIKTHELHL

MAPKAPK2 (human) = MAPKAPK2 (human) (UniProt P49137)
RIPK2 (human) = RIPK2 (human) (UniProt O43353)
MAP2K2 (human) = MAP2K2 (human) (UniProt P36507)
DYRK2 (human) = DYRK2 (human) (UniProt Q92630)
MAPK8 (human) = MAPK8 (human) (UniProt P45983)
YES1 (human) = YES1 (human) (UniProt P07947)
IGF1R (human) = IGF1R (human) (UniProt P08069)
IKBKE (human) = IKBKE (human) (UniProt Q14164)
MAPK9 (human) = MAPK9 (human) (UniProt P45984)
Sequence of MAPK9 (human) (P45984 whole entry, looked up): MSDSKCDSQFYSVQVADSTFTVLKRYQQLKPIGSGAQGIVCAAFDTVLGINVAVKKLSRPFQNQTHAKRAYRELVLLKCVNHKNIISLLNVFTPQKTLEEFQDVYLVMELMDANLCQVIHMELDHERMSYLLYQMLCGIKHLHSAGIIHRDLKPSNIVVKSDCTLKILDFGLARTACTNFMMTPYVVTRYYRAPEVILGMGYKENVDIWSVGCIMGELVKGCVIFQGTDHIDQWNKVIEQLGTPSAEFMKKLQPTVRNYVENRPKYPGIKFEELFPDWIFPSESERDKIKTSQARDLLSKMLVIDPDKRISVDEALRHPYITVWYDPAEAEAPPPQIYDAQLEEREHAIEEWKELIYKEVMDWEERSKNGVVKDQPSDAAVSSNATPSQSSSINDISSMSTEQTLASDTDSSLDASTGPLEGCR

BTK (human) = BTK (human) (UniProt Q06187)
Sequence of BTK (human) (Q06187 whole entry, looked up): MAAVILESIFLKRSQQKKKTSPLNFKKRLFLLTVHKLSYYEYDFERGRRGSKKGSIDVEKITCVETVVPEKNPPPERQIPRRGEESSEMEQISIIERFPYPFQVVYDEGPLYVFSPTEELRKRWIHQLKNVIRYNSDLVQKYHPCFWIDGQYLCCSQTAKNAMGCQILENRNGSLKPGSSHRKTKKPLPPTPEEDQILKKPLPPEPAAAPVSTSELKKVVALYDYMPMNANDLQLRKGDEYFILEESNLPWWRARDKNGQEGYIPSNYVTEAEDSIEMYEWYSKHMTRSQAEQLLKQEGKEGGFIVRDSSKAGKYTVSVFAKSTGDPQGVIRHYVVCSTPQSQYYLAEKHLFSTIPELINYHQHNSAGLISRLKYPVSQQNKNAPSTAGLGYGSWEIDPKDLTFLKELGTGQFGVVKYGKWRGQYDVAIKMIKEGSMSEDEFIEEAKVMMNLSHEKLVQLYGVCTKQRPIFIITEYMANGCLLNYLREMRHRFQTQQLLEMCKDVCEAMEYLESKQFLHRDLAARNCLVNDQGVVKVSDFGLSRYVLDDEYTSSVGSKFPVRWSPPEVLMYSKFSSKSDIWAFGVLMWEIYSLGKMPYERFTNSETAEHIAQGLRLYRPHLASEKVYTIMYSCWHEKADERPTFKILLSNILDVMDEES

MKNK2 (human) = MKNK2 (human) (UniProt Q9HBH9)
EPHB3 (human) = EPHB3 (human) (UniProt P54753)
MAPK14 (human) = MAPK14 (human) (UniProt Q16539)
Sequence of MAPK14 (human) (Q16539 whole entry, looked up): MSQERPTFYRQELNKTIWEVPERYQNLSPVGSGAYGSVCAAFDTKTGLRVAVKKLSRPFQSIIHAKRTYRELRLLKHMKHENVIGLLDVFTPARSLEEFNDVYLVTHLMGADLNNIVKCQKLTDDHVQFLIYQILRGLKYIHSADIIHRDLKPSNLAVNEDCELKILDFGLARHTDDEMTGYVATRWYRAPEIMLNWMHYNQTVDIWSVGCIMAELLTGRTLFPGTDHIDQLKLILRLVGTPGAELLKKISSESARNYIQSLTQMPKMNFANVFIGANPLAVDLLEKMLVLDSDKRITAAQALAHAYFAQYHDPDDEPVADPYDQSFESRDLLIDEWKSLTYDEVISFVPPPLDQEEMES

MAPKAPK5 (human) = MAPKAPK5 (human) (UniProt Q8IW41)
Sequence of MAPKAPK5 (human) (Q8IW41 whole entry, looked up): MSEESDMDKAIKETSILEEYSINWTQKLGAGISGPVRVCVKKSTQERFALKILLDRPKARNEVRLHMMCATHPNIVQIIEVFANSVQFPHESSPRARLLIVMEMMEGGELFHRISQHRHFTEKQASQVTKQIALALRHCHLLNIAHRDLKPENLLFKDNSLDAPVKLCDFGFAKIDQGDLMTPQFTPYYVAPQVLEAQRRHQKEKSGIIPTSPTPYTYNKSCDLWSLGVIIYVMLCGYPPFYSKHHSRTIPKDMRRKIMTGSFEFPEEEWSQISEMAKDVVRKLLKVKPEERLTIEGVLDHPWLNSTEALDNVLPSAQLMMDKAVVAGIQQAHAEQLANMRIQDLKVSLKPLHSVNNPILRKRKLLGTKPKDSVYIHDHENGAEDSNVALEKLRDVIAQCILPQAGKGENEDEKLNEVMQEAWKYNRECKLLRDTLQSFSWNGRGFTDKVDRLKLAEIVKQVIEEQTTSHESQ

BRSK1 (human) = BRSK1 (human) (UniProt Q8TDC3)
HIPK2 (human) = HIPK2 (human) (UniProt Q9H2X6)
Sequence of HIPK2 (human) (Q9H2X6 whole entry, looked up): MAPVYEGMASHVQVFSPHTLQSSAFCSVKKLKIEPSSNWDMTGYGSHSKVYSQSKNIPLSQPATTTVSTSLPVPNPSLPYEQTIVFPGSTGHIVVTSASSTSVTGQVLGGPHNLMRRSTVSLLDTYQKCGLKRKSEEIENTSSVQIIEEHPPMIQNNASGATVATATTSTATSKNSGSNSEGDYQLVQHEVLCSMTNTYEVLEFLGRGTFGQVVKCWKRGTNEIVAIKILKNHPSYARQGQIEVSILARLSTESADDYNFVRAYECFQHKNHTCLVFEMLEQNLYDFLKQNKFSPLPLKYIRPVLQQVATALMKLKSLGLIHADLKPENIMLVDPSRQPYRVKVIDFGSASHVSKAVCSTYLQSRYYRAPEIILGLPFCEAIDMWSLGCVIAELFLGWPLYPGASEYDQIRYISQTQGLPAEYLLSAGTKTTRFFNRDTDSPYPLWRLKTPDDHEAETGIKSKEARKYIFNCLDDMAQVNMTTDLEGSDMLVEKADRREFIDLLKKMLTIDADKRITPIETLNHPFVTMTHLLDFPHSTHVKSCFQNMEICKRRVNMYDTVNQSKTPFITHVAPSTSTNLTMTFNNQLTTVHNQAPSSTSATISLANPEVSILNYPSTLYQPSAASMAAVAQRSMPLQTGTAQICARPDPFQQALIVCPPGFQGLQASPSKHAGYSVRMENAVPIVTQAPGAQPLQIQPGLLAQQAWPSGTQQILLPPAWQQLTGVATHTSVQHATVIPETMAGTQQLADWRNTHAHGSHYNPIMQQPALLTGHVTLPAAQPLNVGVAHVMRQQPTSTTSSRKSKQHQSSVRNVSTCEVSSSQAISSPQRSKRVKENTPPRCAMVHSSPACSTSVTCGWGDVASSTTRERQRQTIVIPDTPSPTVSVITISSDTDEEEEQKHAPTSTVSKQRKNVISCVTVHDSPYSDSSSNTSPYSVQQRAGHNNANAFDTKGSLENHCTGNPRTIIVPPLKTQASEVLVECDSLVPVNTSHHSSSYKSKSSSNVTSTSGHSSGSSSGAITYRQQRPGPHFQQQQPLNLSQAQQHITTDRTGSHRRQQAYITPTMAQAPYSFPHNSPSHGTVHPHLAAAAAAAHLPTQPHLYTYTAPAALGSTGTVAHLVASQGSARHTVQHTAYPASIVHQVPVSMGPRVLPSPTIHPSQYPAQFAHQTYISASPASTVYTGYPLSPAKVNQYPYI

MAPK15 (human) = MAPK15 (human) (UniProt Q8TD08)
Sequence of MAPK15 (human) (Q8TD08 whole entry, looked up): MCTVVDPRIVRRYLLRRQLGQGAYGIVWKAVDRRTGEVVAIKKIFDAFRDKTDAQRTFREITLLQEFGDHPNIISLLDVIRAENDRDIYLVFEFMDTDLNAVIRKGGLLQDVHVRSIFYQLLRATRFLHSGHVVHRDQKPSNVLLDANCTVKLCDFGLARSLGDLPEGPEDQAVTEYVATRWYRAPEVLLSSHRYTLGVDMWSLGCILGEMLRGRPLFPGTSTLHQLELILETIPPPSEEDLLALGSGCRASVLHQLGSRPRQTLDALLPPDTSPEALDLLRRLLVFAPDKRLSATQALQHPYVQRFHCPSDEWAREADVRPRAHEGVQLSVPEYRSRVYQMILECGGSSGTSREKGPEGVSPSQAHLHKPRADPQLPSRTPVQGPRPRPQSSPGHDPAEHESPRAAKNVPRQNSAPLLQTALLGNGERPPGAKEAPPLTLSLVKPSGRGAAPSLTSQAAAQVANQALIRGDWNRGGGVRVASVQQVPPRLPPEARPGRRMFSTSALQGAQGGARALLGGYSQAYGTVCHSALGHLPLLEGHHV

PRKACA (human) = PRKACA (human) (UniProt P17612)
MAP3K7 TAB1 (human) = MAP3K7 TAB1 (human) (UniProt Q15750+O43318)
CAMKK2 (human) = CAMKK2 (human) (UniProt Q96RR4)
IKBKB (human) = IKBKB (human) (UniProt O14920)
DYRK1A (human) = DYRK1A (human) (UniProt Q13627)
MAP3K11 (human) = MAP3K11 (human) (UniProt Q16584)
MELK (human) = MELK (human) (UniProt Q14680)
EPHB2 (human) = EPHB2 (human) (UniProt P29323)
EPHA4 (human) = EPHA4 (human) (UniProt P54764)
CaMK1 (human) = CaMK1 (human) (UniProt Q14012)
CSNK1D (human) = CSNK1D (human) (UniProt P48730)
Sequence of CSNK1D (human) (P48730 whole entry, looked up): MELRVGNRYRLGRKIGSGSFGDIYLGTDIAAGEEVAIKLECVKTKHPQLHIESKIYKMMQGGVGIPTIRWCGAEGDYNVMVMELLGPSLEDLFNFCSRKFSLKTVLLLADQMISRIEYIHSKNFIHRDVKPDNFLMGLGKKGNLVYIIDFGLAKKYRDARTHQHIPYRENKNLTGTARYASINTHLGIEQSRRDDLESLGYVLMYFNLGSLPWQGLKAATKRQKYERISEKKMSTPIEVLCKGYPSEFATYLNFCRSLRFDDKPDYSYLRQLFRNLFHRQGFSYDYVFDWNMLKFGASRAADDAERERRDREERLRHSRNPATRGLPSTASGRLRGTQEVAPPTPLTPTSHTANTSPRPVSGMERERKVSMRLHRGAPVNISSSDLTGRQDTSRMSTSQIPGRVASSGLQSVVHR

Sequence of AURKB (human) (Q96GD4 whole entry, looked up): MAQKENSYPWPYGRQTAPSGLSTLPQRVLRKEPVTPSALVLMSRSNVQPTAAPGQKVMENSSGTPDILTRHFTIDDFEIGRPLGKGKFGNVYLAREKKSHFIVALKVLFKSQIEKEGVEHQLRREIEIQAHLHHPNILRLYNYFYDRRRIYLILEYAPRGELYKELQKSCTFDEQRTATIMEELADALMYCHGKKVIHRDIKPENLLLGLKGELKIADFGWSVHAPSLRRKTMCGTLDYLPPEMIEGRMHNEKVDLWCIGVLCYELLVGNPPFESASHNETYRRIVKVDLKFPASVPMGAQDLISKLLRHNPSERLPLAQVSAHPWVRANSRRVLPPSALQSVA

O=C(NOC[C@H](O)CO)c1ccc(F)c(F)c1Nc1ccc(I)cc1Cl
residual activity (AURKB (human); compound 1.0 µM): 87% | residual activity (AURKB (human); compound 10.0 µM): 82% | residual activity (PIM1 (human); compound 1.0 µM): 92% | residual activity (PIM1 (human); compound 10.0 µM): 73% | residual activity (PAK7 (human); compound 1.0 µM): 104% | residual activity (PAK7 (human); compound 10.0 µM): 85% | residual activity (MAPK12 (human); compound 1.0 µM): 91% | residual activity (MAPK12 (human); compound 10.0 µM): 98% | residual activity (PAK4 (human)): 65% | residual activity (MINK1 (human); compound 1.0 µM): 117% | residual activity (MINK1 (human); compound 10.0 µM): 144% | residual activity (CSK (human); compound 1.0 µM): 93% | residual activity (CSK (human); compound 10.0 µM): 98% | residual activity (MAPKAPK2 (human); compound 1.0 µM): 103% | residual activity (MAPKAPK2 (human); compound 10.0 µM): 102% | residual activity (RIPK2 (human); compound 1.0 µM): 99% | residual activity (RIPK2 (human); compound 10.0 µM): 100% | residual activity (MAP2K2 (human); compound 1.0 µM): 54% | residual activity (MAP2K2 (human); compound 10.0 µM): 16% | residual activity (DYRK2 (human); compound 1.0 µM): 99% | residual activity (DYRK2 (human); compound 10.0 µM): 107% | residual activity (MAPK8 (human); compound 1.0 µM): 91% | residual activity (MAPK8 (human); compound 10.0 µM): 117% | residual activity (YES1 (human); compound 1.0 µM): 82% | residual activity (YES1 (human); compound 10.0 µM): 86% | residual activity (IGF1R (human); compound 1.0 µM): 88% | residual activity (IGF1R (human); compound 10.0 µM): 113% | residual activity (IKBKE (human); compound 1.0 µM): 103% | residual activity (IKBKE (human); compound 10.0 µM): 111% | residual activity (MAPK9 (human); compound 1.0 µM): 90% | residual activity (MAPK9 (human); compound 10.0 µM): 105% | residual activity (BTK (human); compound 1.0 µM): 110% | residual activity (BTK (human); compound 10.0 µM): 100% | residual activity (MKNK2 (human); compound 1.0 µM): 93% | residual activity (MKNK2 (human); compound 10.0 µM): 110% | residual activity (EPHB3 (human); compound 1.0 µM): 101% | residual activity (EPHB3 (human); compound 10.0 µM): 113% | residual activity (MAPK14 (human); compound 1.0 µM): 96% | residual activity (MAPK14 (human); compound 10.0 µM): 97% | residual activity (MAPKAPK5 (human); compound 1.0 µM): 98% | residual activity (MAPKAPK5 (human); compound 10.0 µM): 99% | residual activity (BRSK1 (human); compound 1.0 µM): 97% | residual activity (BRSK1 (human); compound 10.0 µM): 112% | residual activity (HIPK2 (human); compound 1.0 µM): 93% | residual activity (HIPK2 (human); compound 10.0 µM): 104% | residual activity (MAPK15 (human); compound 1.0 µM): 104% | residual activity (MAPK15 (human); compound 10.0 µM): 96% | residual activity (PRKACA (human); compound 1.0 µM): 87% | residual activity (PRKACA (human); compound 10.0 µM): 97% | residual activity (MAP3K7 TAB1 (human); compound 1.0 µM): 77% | residual activity (MAP3K7 TAB1 (human); compound 10.0 µM): 82% | residual activity (CAMKK2 (human); compound 1.0 µM): 92% | residual activity (CAMKK2 (human); compound 10.0 µM): 94% | residual activity (IKBKB (human); compound 1.0 µM): 88% | residual activity (IKBKB (human); compound 10.0 µM): 103% | residual activity (DYRK1A (human); compound 1.0 µM): 94% | residual activity (DYRK1A (human); compound 10.0 µM): 104% | residual activity (MAP3K11 (human); compound 1.0 µM): 83% | residual activity (MAP3K11 (human); compound 10.0 µM): 92% | residual activity (MELK (human); compound 1.0 µM): 81% | residual activity (MELK (human); compound 10.0 µM): 97% | residual activity (EPHB2 (human); compound 1.0 µM): 64% | residual activity (EPHB2 (human); compound 10.0 µM): 74% | residual activity (EPHA4 (human); compound 1.0 µM): 86% | residual activity (EPHA4 (human); compound 10.0 µM): 89% | residual activity (CaMK1 (human); compound 1.0 µM): 96% | residual activity (CaMK1 (human); compound 10.0 µM): 91% | residual activity (CSNK1D (human); compound 1.0 µM): 89% | residual activity (CSNK1D (human); compound 10.0 µM): 101%
